Key:
[1] = rat, in vivo
[2] = design: species or system Sprague-Dawley rats; settings: rat, in vivo

## CCOP(=O)(OCC)Oc1ccc([N+](=O)[O-])cc1 [POX, O,O-diethyl-O-p-nitrophenylphosphate]
[1]
  RBC fraction relative to naïve and 60-minute studies: about twice
  RBC fraction, % of total radioactivity: 20%
  metabolite level in blood relative to naïve rats (or rats 60 minutes after POX): 5 fold
  reduction of total percent radioactivity of plasma proteins: ~20%
[2]
  brain AUC as % of naïve: > 80%
  heart AUC restored, % of naïve AUC level: 25%
  liver AUC increase versus naïve: 4 fold
  lung AUC restored, % of naïve AUC level: 50%
  mean brain region radioactivity higher than naïve rats: up to 2 fold
